From patent US6653304B2, “Cannabinoid receptor modulators, their processes of preparation, and use of cannabinoid receptor modulators for treating respiratory and non-respiratory diseases” (Bristol-Myers Squibb Co., priority 2000, dated 2003) come the findings set out here.

The test system of the assay is human lung epithelial cell lines H292 and A549. Nature of the assay: Activation of lung epithelial cells. The format is cell-based. Here is the method:
(2) Activation of Lung Epithelial Cells
The ability of the cannabinoids to inhibit mucin, chemokine/cytokine production from lung epithelial cells is evaluated with human lung epithelial cell lines H292 and A549. Epithelial cells are cultured overnight in 48 well microtiter plates in complete RMPI […] (200 μl/well) at a density of 2×10^5 cells/ml. The media is removed and replaced with fresh media. Test compounds in 50 μl isotonic buffer are added and incubated for 1 hour at 37° C. Cell activation is triggered by the addition of a stimulatory agent comprising one of EGF, smoke conditioned media, TNF-α or IL-1β. In this assay, the IC50 for Win-55212-2<20 mcM. After a desired period of time (e.g., 24 h) the cell supernatants are removed and assayed for mucin cytokine and chemokines by ELISA. The cannabinoid agonists inhibit mucin and IL-8 production from lung epithelial cells.

Bounds are passed on as bounds.

Turning to `Cc1c(C(=O)c2cccc3ccccc23)c2cccc3c2n1[C@H](CN1CCOCC1)CO3` [Win-55212-2], the “activity in the lung epithelial cell assay” value was “demonstrated activity”. Further, the IC50 (stimulated with EGF, smoke conditioned media, TNF-α or IL-1β, mucin, cytokine and chemokines by ELISA) is less than 20 µM.
